Assay results taken from patent US5371102A, “Compositions and methods of inhibiting thyroid activity” (priority 1993, dated 1994).
Entries after “also recorded” stand apart in the source; their conditions may differ. Read-outs that look alike come from different tables or passages of the source.

Experiments:
[1] = test system: LPX and TPX; experiment: suicide inhibition of peroxidases (summary statements); format: biochemical; conditions: for suicide inhibition: summary of own examples
[2] = molecular target: T1, TPX (Sus scrofa, UniProt P09933); experiment: TPX-catalyzed iodide oxidation (triiodide formation), spectrophotometric; format: biochemical, hog; conditions: TPX, H2O2 and I-
T1 sequence (P09933 15-926): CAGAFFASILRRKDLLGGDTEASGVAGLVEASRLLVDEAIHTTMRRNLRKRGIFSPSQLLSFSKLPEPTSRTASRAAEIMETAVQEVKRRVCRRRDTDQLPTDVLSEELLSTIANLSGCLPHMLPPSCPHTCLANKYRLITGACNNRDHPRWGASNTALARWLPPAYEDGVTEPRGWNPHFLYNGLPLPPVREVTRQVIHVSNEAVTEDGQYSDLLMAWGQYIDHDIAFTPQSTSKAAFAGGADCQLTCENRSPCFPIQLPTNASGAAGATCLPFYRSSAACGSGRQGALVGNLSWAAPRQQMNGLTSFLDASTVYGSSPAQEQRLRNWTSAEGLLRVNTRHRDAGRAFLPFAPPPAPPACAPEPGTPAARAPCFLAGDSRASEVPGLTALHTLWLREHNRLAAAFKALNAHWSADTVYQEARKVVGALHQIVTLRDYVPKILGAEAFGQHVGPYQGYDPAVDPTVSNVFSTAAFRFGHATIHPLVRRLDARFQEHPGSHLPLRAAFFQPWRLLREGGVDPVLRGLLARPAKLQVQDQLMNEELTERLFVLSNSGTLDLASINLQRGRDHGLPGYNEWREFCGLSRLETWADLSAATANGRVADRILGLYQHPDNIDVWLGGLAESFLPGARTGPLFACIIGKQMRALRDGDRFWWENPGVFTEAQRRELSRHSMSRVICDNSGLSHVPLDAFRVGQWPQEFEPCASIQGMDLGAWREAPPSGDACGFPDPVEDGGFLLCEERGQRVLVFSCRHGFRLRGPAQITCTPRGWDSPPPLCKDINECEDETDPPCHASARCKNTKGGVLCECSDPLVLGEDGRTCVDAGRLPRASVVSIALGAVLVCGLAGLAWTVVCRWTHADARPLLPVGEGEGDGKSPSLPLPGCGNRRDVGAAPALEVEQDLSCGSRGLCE
From the text: (§1) Materials used in the examples below were obtained from the following sources. Bovine LPX, bovine liver catalase, glucose oxidase, 30% hydrogen peroxide, glucose, guaiacol, ABTS and deuterium oxide were purchased from Sigma Chemical Company. Selenium dioxide, MBI ^13 CH3 I and PBA were purchased from Aldrich Chemical Company and PBA was purified as previously described by Fieset et al., Reagents for Organic Synthesis, Vol. I, pp.135-139, John Wiley and Sons, N.Y. (1967). LPX purity was checked by PAGE, as described by Doerge, D.R., et al. in, Biochem. Pharmacol., Vol.36, pp.972-974 (1986). TPX was purified from hog thyroids obtained from a local slaughterhouse by published procedures. Doerge & Takazowa, Chemical Research in Toxicology, Vol. 3, pp. 98-101 (1990). TPX purity was determined by LC and its concentration determined spectophotometrically. Hydroperoxide concentrations were determined by iodometric titration, as described by Kolthoff, et al., in "Quantitative Chemical Analysis", Macmillan, London, pp.842-860 (1969). MMBI, and BI were synthesized by published procedures as described by Doerge, D.R., Biochem, Vol. 27, pp. 3697-3700 (1988) and were recrystallized from aqueous ethanol. MeBI was purified by distillation and DMeBI^+ was synthesized and purified by recrystallization from ethyl acetate/methanol. 1-^13 C-MMBI was synthesized from ^13 CH3 I according to the procedure disclosed by Doerge, D.R., in, J. Lab. Comp. and Radiopharm., Vol.25, pp.985-990 (1988). PPHP and PPA were prepared, purified and analyzed as previously described by Doerge, Biochem, Vol.27, p.11 (1988). The methyl ester of 1-methyl-benzimidazole-2-sulfinic acid was prepared by addition of hydrogen peroxide (5 equivalents of a 10 M solution) to MMBI (0.1 M) in methanol. The products, MeBI and the ester, were obtained following preparative TLC on silica (Uniplate, Analtech Co., Newark, DL) using 5% methanol/chloroform as eluant. […]
1,3-diacetyl MBI (AczMBI) was synthesized according to the method published by Doerge et al., Syn. […] Varying quantities of Ac2 MBI were incubated with TPX, H2 O2, and I^-. […]

[3] = test system: TPX; conditions: cited from earlier work
[4] = test system: LPX; conditions: cited from earlier work
[5] = molecular target: T1, TPX; experiment: covalent binding to TPX in the presence of H2O2; parameters: species or system hog
From the text: as §1, with “MeBI was purified by distillation and DMeBI^+ was synthesized and purified by recrystallization from ethyl acetate/methanol. 1-^13 C-MMBI was synthesized from ^13 CH3 I according to the procedure disclosed by Doerge, D.R., in, J. Lab. Comp. and Radiopharm., Vol.25, pp.985-990 (1988).” left out, “(1988).” for “(1988). The methyl ester of 1-methyl-benzimidazole-2-sulfinic acid was prepared by addition of hydrogen peroxide (5 equivalents of a 10 M solution) to MMBI (0.1 M) in methanol. The products, MeBI and the ester, were obtained following preparative TLC on silica (Uniplate, Analtech Co., Newark, DL) using 5% methanol/chloroform as eluant.”

[6] = molecular target: T2, LPX (Bos taurus, UniProt P80025); experiment: LPX suicide inactivation kinetics; format: biochemical, bovine
T2 construct: purchased Sigma Chemical Company
From the text: (§2) Materials used in the examples below were obtained from the following sources. Bovine LPX, bovine liver catalase, glucose oxidase, 30% hydrogen peroxide, glucose, guaiacol, ABTS and deuterium oxide were purchased from Sigma Chemical Company. Selenium dioxide, MBI ^13 CH3 I and PBA were purchased from Aldrich Chemical Company and PBA was purified as previously described by Fieset et al., Reagents for Organic Synthesis, Vol. I, pp.135-139, John Wiley and Sons, N.Y. (1967). LPX purity was checked by PAGE, as described by Doerge, D.R., et al. in, Biochem. Pharmacol., Vol.36, pp.972-974 (1986). TPX was purified from hog thyroids obtained from a local slaughterhouse by published procedures. Doerge & Takazowa, Chemical Research in Toxicology, Vol. 3, pp. 98-101 (1990). TPX purity was determined by LC and its concentration determined spectophotometrically. Hydroperoxide concentrations were determined by iodometric titration, as described by Kolthoff, et al., in "Quantitative Chemical Analysis", Macmillan, London, pp.842-860 (1969). MMBI, and BI were synthesized by published procedures as described by Doerge, D.R., Biochem, Vol. 27, pp. 3697-3700 (1988) and were recrystallized from aqueous ethanol. MeBI was purified by distillation and DMeBI^+ was synthesized and purified by recrystallization from ethyl acetate/methanol. 1-^13 C-MMBI was synthesized from ^13 CH3 I according to the procedure disclosed by Doerge, D.R., in, J. Lab. Comp. and Radiopharm., Vol.25, pp.985-990 (1988). PPHP and PPA were prepared, purified and analyzed as previously described by Doerge, Biochem, Vol.27, p.11 (1988). The methyl ester of 1-methyl-benzimidazole-2-sulfinic acid was prepared by addition of hydrogen peroxide (5 equivalents of a 10 M solution) to MMBI (0.1 M) in methanol. The products, MeBI and the ester, were obtained following preparative TLC on silica (Uniplate, Analtech Co., Newark, DL) using 5% methanol/chloroform as eluant.
Inhibition of LPX activity by thiones was determined from the kinetics of iodide ion, guaiacol or ABTS oxidation assays conducted at 25° C. Kinetic parameters of suicide inactivation were determined as previously described. Doerge, Biochem. Vol.27, pp.3697-3700 (1988).

[7] = molecular target: T1, TPX; experiment: TPX inactivation; format: biochemical, hog; conditions: presence of hydrogen peroxide
From the text: as §2
DMMBI was synthesized according to a published method. Duffin et al., J. Chem. Soc., Part II, pp.364-365 (1956). Samples including TPX, H2 O2, and I^- were incubated with and without DMMBI. Triiodide formation was observed spectrophotometrically with respect to time.

[8] = thione reaction with PBA in aqueous buffered methanol, product ratios; format: physicochemical; conditions: thione 100 μM, PBA 0-200 μM
Description: (§3) Oxidation stoichiometries were determined spectrophoto, metrically, using a Hewlett Packard 8452A diode array spectrophotometer, by measuring thione concentration at 305 nm as a function of PBA concentration. Hydroperoxide content was determined iodometrically. Stoichiometries of substrate consumption/product formation were also determined by addition of limiting amounts of PBA to 100 μM MBI or MMBI in 50% methanol/pH 7 phosphate. The disappearance of thione and the production of BI, MeBI and bisulfite ion was determined after one hour at 25° C. The production of bisulfite ion was measured […]. The production of sulfate ion was determined by ion chromatography using a AS4A column (Dionex Co., Sunnyvale, CA) with a Dionex Gradient Pump Module and a Dionex CDM II conductivity detector equipped with an AMMS suppressor using 3 mM carbonate/bicarbonate buffer pH 10 as eluant at 2.0 ml/min. Reaction products were also monitored by ^1 H NMR performed at 300 MHz using a Nicolet NT300 or General Electric QE300 spectrometer DSS as a reference.
The reaction of MBI and MMBI with PBA was also examined in aqueous buffered methanol. Thione (100 μM) was incubated with varying concentrations of PBA (0-200 μM). Reactant and product quantities were determined by LC as described in example 1. The ratios of product formation to thione consumption were calculated, and are reported below in Table 1. The values are averages of two slope determinations, i.e., moles of product formed or reactant consumed vs. moles of oxidant added, each determined from at least five data points.

[9] = chemical oxidation stoichiometry of thiones; format: physicochemical; conditions: for moles of oxidant required for total reaction: PBA, FIG. 4
Description: Oxidation stoichiometries were determined for the thione compounds MBI, MMBI and DMMBI by incubating the thiones with varying amounts of PBA (0-250μM). The rapid reaction (t1/2 <10 s at 25° C.) of benzimidazole-2-thiones with PBA in methanol provided a convenient method for determining oxidation stoichiometry.
as §3

[10] = kinetics of thione oxygenation by hydrogen peroxide/TFA; format: physicochemical; conditions: thione 25 μM, H2O2 34 mM, TFA 163 mM in methanol, 25° C.; relative to DMMBI
Description: The kinetics of thione oxygenation were determined for MBI, MMBI and DMMBI. Oxygenation by hydrogen peroxide/TFA was measured spectrophotometrically (305 nm) at 25° C. by addition of thione (final concentration 25 μM) to hydrogen peroxide (34 mM) and TFA (163 mM) in methanol.

[11] = molecular target: T2, LPX; experiment: LPX-mediated covalent binding of labelled thiocarbamides to LPX; parameters: species or system bovine; conditions: +H2O2 vs. +H2O2 +KI; 14C- and 35S-labelled
From the text: as §2
LPX-mediated covalent binding of ^14 C- and ^35 S-labelled thiocarbamides to LPX under iodide-dependent and -independent conditions was measured.

[12] = test system: LPX and TPX; conditions: currently used drugs, background; cited from earlier work
[13] = cited from earlier work

CC(=O)n1c(=S)n(C(C)=O)c2ccccc21 [Ac2 MBI, 1,3-diacetylbenzimidazole-2-thione]
selectivity for iodide ion oxidation ([1]; alternate substrate mechanism): block only reactions involving iodide ion oxidation
suicide inhibition [1]: not suicide inhibitors
effect on triiodide formation [2]: exhibits similar inhibition of triiodide formation as was observed with DMMBI

S=C1NCCN1 [ETU, imidazolidine-2-thione]
inhibition of TPX-catalyzed iodination [3]: inhibits TPX- and LPX-catalyzed iodination reactions
inhibition of LPX-catalyzed iodination [4]: inhibits TPX- and LPX-catalyzed iodination reactions

Sc1nc2ccccc2[nH]1 [MBI, benzimidazole-2-thione]
covalent binding to TPX [5]: bind covalently to LPX and TPX
partition ratio (LPX inactivation) ([6]; 25° C.): approximately 3
LPX inactivation / loss of LPX activity ([6]; presence of hydrogen peroxide): rapid, irreversible loss of LPX and TPX activity; also recorded: cause rapid, irreversible enzyme inactivation
KI (inactivation) ([6]; read-out: Ki (LPX inactivation); 25° C.): 0.1 nM
TPX inactivation [7]: rapid, irreversible loss of LPX and TPX activity; also recorded: cause rapid, irreversible enzyme inactivation
PBA/thione [8]: 1.89
benzimidazole/thione [8]: 0.89
bisulfite/thione [8]: 0.72
suicide inhibition [1]: suicide inhibitors
moles of oxidant required for total reaction [9]: two
relative rate of oxygenation [10]: 2.3
covalent binding to LPX [11]: become covalently bound to LPX

Cn1c(S)nc2ccccc21 [MMBI, 1-methylbenzimidazole-2-thione]
covalent binding to TPX [5]: bind covalently to LPX and TPX
partition ratio (LPX inactivation) ([6]; 25° C.): ~35
KI (inactivation) ([6]; 25° C.; read-out: Ki (LPX inactivation)): 274 nM
LPX inactivation / loss of LPX activity ([6]; presence of hydrogen peroxide): rapid, irreversible loss of LPX and TPX activity; also recorded: cause rapid, irreversible enzyme inactivation
TPX inactivation [7]: rapid, irreversible loss of LPX and TPX activity; also recorded: cause rapid, irreversible enzyme inactivation
PBA/thione [8]: 1.98
benzimidazole/thione [8]: 0.87
bisulfite/thione [8]: 0.72
suicide inhibition [1]: suicide inhibitors
moles of oxidant required for total reaction [9]: two
equivalents of hydroperoxide required per mole of thione ([9]; hydroperoxides): 2 equivalents
relative rate of oxygenation [10]: 1.3
covalent binding to LPX [11]: become covalently bound to LPX

Cn1cc[nH]c1=S [MMI, 1-methylimidazole-2-thione]
suicide inhibition [12]: suicide inhibitors

CCOC(=O)n1ccn(C)c1=S [carbimazole, 1-carboxyethyl-3-methylimidazole-2-thione]
in vivo stability / conversion [13]: labile in vivo and is rapidly converted to methimazole

CCCc1cc(=O)[nH]c(=S)[nH]1 [propylthiouracil]
suicide inhibition [12]: suicide inhibitors
